Assay results taken from EP4722207A1, “OXOISOINDOLINYL-SUBSTITUTED TETRAHYDROPYRIMIDINEDIONE DERIVATIVE AND USE THEREOF” (Gluetacs Therapeutics (Shanghai) Co., Ltd., priority 2023, dated 2024).

Legend:
Format in all cases: cell-based
[1] = biological target: T1, WEE1 (Homo sapiens, UniProt P30291+Q96SW2); test: Western-blot assay, substrate protein degradation in hPBMCs: WEE1; conditions: for WEE1 substrate protein remaining %: compounds at 50 nM and 500 nM, 24 hours; for substrate protein remaining % WEE1: 24 hours of compound treatment, 50 nM and 500 nM
T1 construct: effects of the compounds of the present disclosure on the expression of target proteins in cells; endogenous in cells; host or cells: human PBMCs (hPBMCs)

[2] = biological target: T2, IKZF1 (Homo sapiens, UniProt Q13422+Q96SW2); test: Western-blot assay, substrate protein degradation in hPBMCs: IKZF1; conditions: for IKZF1 substrate protein remaining %: compounds at 50 nM and 500 nM, 24 hours; for substrate protein remaining % IKZF1: 24 hours of compound treatment, 50 nM and 500 nM
T2 construct: effects of the compounds of the present disclosure on the expression of target proteins in cells; endogenous in cells; host or cells: human PBMCs (hPBMCs)
T2 sequence (Q13422 whole entry): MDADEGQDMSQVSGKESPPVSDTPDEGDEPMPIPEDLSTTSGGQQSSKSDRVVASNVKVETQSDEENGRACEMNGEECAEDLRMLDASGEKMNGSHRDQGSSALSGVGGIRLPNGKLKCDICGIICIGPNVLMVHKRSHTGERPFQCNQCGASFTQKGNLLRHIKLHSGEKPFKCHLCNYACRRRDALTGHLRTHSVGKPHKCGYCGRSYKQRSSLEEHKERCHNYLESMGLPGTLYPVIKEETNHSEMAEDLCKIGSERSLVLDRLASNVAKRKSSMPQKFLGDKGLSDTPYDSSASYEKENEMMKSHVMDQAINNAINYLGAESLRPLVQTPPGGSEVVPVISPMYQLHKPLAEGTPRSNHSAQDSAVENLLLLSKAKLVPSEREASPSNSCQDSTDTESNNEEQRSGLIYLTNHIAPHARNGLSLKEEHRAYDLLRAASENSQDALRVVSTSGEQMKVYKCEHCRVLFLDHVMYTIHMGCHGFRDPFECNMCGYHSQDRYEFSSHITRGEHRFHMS
T2 sequence (Q96SW2 whole entry): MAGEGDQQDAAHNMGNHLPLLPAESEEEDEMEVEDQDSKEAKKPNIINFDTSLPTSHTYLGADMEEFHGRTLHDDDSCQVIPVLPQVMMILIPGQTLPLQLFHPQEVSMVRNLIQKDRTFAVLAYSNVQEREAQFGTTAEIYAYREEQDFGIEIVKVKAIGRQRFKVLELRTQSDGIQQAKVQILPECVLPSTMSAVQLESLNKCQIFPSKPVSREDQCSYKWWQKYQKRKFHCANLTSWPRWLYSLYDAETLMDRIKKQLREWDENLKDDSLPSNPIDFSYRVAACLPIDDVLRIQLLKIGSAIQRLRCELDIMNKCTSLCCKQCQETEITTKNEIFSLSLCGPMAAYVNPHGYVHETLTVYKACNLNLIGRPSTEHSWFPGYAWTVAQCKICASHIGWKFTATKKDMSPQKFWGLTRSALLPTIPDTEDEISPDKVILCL
T2 sequence (Q16531 whole entry partner): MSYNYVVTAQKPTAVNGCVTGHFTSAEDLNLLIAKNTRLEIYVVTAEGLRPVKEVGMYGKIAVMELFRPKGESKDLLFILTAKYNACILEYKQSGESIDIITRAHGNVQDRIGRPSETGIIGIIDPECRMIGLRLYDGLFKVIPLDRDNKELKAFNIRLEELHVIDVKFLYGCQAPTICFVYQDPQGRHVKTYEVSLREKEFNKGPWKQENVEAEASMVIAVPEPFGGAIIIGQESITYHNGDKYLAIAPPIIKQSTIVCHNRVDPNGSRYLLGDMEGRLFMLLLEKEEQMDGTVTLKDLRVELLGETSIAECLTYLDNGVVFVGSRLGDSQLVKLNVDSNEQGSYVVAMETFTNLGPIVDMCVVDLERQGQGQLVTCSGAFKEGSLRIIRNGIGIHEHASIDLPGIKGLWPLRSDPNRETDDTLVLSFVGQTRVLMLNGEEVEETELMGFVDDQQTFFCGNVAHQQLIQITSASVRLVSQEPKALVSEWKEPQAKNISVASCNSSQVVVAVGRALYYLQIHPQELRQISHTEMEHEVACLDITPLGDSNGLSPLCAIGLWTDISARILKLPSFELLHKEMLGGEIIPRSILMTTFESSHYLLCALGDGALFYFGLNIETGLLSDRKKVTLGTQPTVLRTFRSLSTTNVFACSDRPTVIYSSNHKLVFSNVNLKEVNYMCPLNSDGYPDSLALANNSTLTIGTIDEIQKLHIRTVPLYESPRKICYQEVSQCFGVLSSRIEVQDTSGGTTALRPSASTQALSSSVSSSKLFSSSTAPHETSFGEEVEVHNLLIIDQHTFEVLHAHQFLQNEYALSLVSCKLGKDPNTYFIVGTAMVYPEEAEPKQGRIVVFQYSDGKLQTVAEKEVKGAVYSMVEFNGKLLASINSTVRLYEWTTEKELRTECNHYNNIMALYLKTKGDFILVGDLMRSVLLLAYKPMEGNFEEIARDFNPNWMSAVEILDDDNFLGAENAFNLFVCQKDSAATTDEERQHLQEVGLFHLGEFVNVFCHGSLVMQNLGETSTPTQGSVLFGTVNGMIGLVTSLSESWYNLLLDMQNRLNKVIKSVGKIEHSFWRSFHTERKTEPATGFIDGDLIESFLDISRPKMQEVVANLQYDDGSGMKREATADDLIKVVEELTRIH

[3] = biological target: T3, CK1α (Homo sapiens, UniProt P48729+Q96SW2); test: Western-blot assay, substrate protein degradation in hPBMCs: CK1α; conditions: for CK1α substrate protein remaining %: compounds at 50 nM and 500 nM, 24 hours; for substrate protein remaining % CK1α: 24 hours of compound treatment, 50 nM and 500 nM
T3 construct: effects of the compounds of the present disclosure on the expression of target proteins in cells; endogenous in cells; host or cells: human PBMCs (hPBMCs)
T3 sequence (P48729 whole entry): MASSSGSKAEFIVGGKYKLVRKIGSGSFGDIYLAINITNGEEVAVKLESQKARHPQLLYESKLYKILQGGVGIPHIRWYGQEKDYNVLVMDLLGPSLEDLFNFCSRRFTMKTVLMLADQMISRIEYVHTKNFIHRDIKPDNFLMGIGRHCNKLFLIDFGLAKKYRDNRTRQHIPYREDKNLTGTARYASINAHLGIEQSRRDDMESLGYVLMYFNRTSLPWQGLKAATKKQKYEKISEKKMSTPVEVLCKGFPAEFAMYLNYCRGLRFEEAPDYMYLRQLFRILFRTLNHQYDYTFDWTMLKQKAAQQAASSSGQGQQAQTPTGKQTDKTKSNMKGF
T3 sequence (Q96SW2 whole entry): as the sequence (Q96SW2 whole entry) above
T3 sequence (Q16531 whole entry partner): as the sequence (Q16531 whole entry partner) above

[4] = biological target: T4, IKZF2 (Homo sapiens, UniProt Q96SW2+Q9UKS7); test: Western-blot assay, substrate protein degradation in hPBMCs: IKZF2; conditions: for IKZF2 substrate protein remaining %: compounds at 50 nM and 500 nM, 24 hours; for substrate protein remaining % IKZF2: 24 hours of compound treatment, 50 nM and 500 nM
T4 construct: effects of the compounds of the present disclosure on the expression of target proteins in cells; endogenous in cells; host or cells: human PBMCs (hPBMCs)
T4 sequence (Q9UKS7 whole entry): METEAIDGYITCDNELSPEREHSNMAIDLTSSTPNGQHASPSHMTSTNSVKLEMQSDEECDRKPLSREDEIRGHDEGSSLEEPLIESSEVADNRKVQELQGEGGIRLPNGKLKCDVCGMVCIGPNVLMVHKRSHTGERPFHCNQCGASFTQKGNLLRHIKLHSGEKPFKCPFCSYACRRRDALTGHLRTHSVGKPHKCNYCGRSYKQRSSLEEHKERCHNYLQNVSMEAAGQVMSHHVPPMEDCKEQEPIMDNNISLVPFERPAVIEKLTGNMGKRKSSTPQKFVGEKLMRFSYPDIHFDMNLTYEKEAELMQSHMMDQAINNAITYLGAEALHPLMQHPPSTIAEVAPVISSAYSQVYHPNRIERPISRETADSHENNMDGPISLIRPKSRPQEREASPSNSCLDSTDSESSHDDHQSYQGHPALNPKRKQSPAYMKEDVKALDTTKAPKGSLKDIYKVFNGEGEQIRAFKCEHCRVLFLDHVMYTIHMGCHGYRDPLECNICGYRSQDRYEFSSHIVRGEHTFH
T4 sequence (Q96SW2 whole entry): as the sequence (Q96SW2 whole entry) above
T4 sequence (Q16531 whole entry partner): as the sequence (Q16531 whole entry partner) above

[5] = biological target: T5, IKZF3 (Homo sapiens, UniProt Q96SW2+Q9UKT9); test: Western-blot assay, substrate protein degradation in hPBMCs: IKZF3; conditions: for IKZF3 substrate protein remaining %: compounds at 50 nM and 500 nM, 24 hours; for substrate protein remaining % IKZF3: 24 hours of compound treatment, 50 nM and 500 nM
T5 construct: effects of the compounds of the present disclosure on the expression of target proteins in cells; endogenous in cells; host or cells: human PBMCs (hPBMCs)
T5 sequence (Q9UKT9 whole entry): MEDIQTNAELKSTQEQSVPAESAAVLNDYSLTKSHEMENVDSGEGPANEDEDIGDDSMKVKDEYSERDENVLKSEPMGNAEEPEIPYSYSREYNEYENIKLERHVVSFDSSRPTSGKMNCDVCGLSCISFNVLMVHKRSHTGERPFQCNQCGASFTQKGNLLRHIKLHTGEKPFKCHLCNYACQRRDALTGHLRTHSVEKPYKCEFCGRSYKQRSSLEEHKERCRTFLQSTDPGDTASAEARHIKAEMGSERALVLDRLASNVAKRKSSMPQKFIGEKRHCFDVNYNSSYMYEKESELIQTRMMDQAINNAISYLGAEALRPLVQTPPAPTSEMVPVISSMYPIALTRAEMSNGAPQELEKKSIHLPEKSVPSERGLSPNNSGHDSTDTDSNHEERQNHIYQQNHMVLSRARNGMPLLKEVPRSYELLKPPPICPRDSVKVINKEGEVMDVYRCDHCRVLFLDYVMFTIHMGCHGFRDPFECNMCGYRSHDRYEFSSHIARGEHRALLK
T5 sequence (Q96SW2 whole entry): as the sequence (Q96SW2 whole entry) above
T5 sequence (Q16531 whole entry partner): as the sequence (Q16531 whole entry partner) above

[6] = biological target: T6, GSPT1 (Homo sapiens, UniProt P15170+Q96SW2); test: Western-blot assay, substrate protein degradation in hPBMCs: GSPT1; conditions: for GSPT1 substrate protein remaining %: compounds at 50 nM and 500 nM, 24 hours; for substrate protein remaining % GSPT1: 24 hours of compound treatment, 50 nM and 500 nM
T6 construct: effects of the compounds of the present disclosure on the expression of target proteins in cells; endogenous in cells; host or cells: human PBMCs (hPBMCs)
T6 sequence (P15170 whole entry): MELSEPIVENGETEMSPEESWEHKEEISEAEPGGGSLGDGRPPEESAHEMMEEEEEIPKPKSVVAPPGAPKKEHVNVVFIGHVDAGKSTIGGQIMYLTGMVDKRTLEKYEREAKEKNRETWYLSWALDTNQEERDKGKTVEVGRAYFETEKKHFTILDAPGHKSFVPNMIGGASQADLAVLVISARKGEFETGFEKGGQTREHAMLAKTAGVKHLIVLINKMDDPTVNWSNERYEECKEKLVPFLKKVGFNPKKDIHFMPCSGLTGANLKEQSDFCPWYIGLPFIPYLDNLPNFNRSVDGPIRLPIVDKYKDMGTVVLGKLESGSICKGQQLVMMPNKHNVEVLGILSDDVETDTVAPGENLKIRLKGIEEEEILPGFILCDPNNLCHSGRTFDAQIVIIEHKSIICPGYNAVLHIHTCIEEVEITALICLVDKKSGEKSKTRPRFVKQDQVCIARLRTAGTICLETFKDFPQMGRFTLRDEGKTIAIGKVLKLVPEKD
T6 sequence (Q96SW2 whole entry): as the sequence (Q96SW2 whole entry) above
T6 sequence (Q16531 whole entry partner): as the sequence (Q16531 whole entry partner) above

| SMILES | WEE1 substrate protein remaining % [1] | IKZF1 substrate protein remaining % [2] | CK1α substrate protein remaining % [3] | IKZF2 substrate protein remaining % [4] | IKZF3 substrate protein remaining % [5] | GSPT1 substrate protein remaining % [6] | substrate protein remaining % WEE1 [1] | substrate protein remaining % IKZF1 [2] | substrate protein remaining % CK1α [3] | substrate protein remaining % IKZF2 [4] | substrate protein remaining % IKZF3 [5] | substrate protein remaining % GSPT1 [6] |
| --- | --- | --- | --- | --- | --- | --- | --- | --- | --- | --- | --- | --- |
| O=C1CCN(N2C(=O)c3ccc(CN4CCN(c5ccc(F)c(F)c5)CC4)cc3C2=O)C(=O)N1 [GT-06797, 5-((4-(3,4-difluorophenyl)piperazin-1-yl)methyl)-2-(2,4-dioxotetrahydropyrimidin-1(2H)-yl)isoindoline-1,3-dione] | A ("A" is defined as 0% ≤ substrate protein remaining % ≤ 80%) | B ("B" is defined as 80%< substrate protein remaining %≤ 100%) | B ("B" is defined as 80%< substrate protein remaining %≤ 100%) | B ("B" is defined as 80%< substrate protein remaining %≤ 100%) | B ("B" is defined as 80%< substrate protein remaining %≤ 100%) | B ("B" is defined as 80%< substrate protein remaining %≤ 100%) | – | – | – | – | – | – |
| O=C1CCN(N2Cc3cc(CN4C[C@H]5C[C@@H]4CN5c4cccc(Cl)c4Cl)ccc3C2=O)C(=O)N1 [GT-07427, 1-(5-(((1R,4R)-5-(2,3-dichlorophenyl)-2,5-diazabicyclo[2.2.1]heptan-2-yl)methyl)-1-oxoisoindolin-2-yl)dihydropyrimidine-2,4(1H,3H)-dione] | – | – | – | – | – | – | A (0% ≤ substrate protein remaining % ≤ 80%) | A (0% ≤ substrate protein remaining % ≤ 80%) | A (0% ≤ substrate protein remaining % ≤ 80%) | B (80%< substrate protein remaining %≤ 100%) | B (80%< substrate protein remaining %≤ 100%) | A (0% ≤ substrate protein remaining % ≤ 80%) |
| O=C1CCN(N2C(=O)c3ccc(CN4CCN(c5ccnc(Br)c5F)CC4)cc3C2=O)C(=O)N1 [GT-07167, 5-((4-(2-bromo-3-fluoropyridin-4-yl)piperazin-1-yl)methyl)-2-(2,4-dioxotetrahydropyrimidin-1(2H)-yl)isoindoline-1,3-dione] | B ("B" is defined as 80%< substrate protein remaining %≤ 100%) | B ("B" is defined as 80%< substrate protein remaining %≤ 100%) | B ("B" is defined as 80%< substrate protein remaining %≤ 100%) | A ("A" is defined as 0% ≤ substrate protein remaining % ≤ 80%) | B ("B" is defined as 80%< substrate protein remaining %≤ 100%) | A ("A" is defined as 0% ≤ substrate protein remaining % ≤ 80%) | – | – | – | – | – | – |
| O=C1CCN(N2C(=O)c3ccc(CN4C5CC4CN(c4cccc(Cl)c4Cl)C5)cc3C2=O)C(=O)N1 [GT-05251, 5-((3-(2,3-dichlorophenyl)-3,6-diazabicyclo[3.1.1]heptan-6-yl)methyl)-2-(2,4-dioxotetrahydropyrimidin-1(2H)-yl)isoindoline-1,3-dione] | B ("B" is defined as 80%< substrate protein remaining %≤ 100%) | B ("B" is defined as 80%< substrate protein remaining %≤ 100%) | B ("B" is defined as 80%< substrate protein remaining %≤ 100%) | A ("A" is defined as 0% ≤ substrate protein remaining % ≤ 80%) | B ("B" is defined as 80%< substrate protein remaining %≤ 100%) | B ("B" is defined as 80%< substrate protein remaining %≤ 100%) | – | – | – | – | – | – |
| O=C1CCN(N2C(=O)c3ccc(CN4CC=C(c5ncnc6scc(-c7ccccc7)c56)CC4)cc3C2=O)C(=O)N1 [GT-08431, 2-(2,4-dioxotetrahydropyrimidin-1(2H)-yl)-5-((4-(5-phenylthieno[2,3-d]pyrimidin-4-yl)-3,6-dihydropyridin-1(2H)-yl)methyl)isoindoline-1,3-dione] | – | – | – | – | – | – | A (0% ≤ substrate protein remaining % ≤ 80%) | B (80%< substrate protein remaining %≤ 100%) | B (80%< substrate protein remaining %≤ 100%) | A (0% ≤ substrate protein remaining % ≤ 80%) | B (80%< substrate protein remaining %≤ 100%) | B (80%< substrate protein remaining %≤ 100%) |
| O=C1CCN(N2Cc3cc(CN4CCC(c5ccc(F)cc5)CC4)ccc3C2=O)C(=O)N1 [GT-06890, 1-(5-((4-(4-fluorophenyl)piperidin-1-yl)methyl)-1-oxoisoindolin-2-yl)dihydropyrimidine-2,4(1H,3H)-dione] | A ("A" is defined as 0% ≤ substrate protein remaining % ≤ 80%) | B ("B" is defined as 80%< substrate protein remaining %≤ 100%) | B ("B" is defined as 80%< substrate protein remaining %≤ 100%) | B ("B" is defined as 80%< substrate protein remaining %≤ 100%) | B ("B" is defined as 80%< substrate protein remaining %≤ 100%) | A ("A" is defined as 0% ≤ substrate protein remaining % ≤ 80%) | – | – | – | – | – | – |
| O=C1CCN(N2C(=O)c3ccc(CN4CCC(C5CCOc6cc(F)ccc65)CC4)cc3C2=O)C(=O)N1 (stereo not drawn) [GT-07684, 2-(2,4-dioxotetrahydropyrimidin-1(2H)-yl)-5-((4-(7-fluorochroman-4-yl)piperidin-1-yl)methyl)isoindoline-1,3-dione] | – | – | – | – | – | – | B (80%< substrate protein remaining %≤ 100%) | B (80%< substrate protein remaining %≤ 100%) | B (80%< substrate protein remaining %≤ 100%) | B (80%< substrate protein remaining %≤ 100%) | B (80%< substrate protein remaining %≤ 100%) | A (0% ≤ substrate protein remaining % ≤ 80%) |
| O=C1CCN(N2Cc3cc(CN4CCC(c5c[nH]c6ncccc56)CC4)ccc3C2=O)C(=O)N1 [GT-07576, 1-(5-((4-(1H-pyrrolo[2,3-b]pyridin-3-yl)piperidin-1-yl)methyl)-1-oxoisoindolin-2-yl)dihydropyrimidine-2,4(1H,3H)-dione] | – | – | – | – | – | – | A (0% ≤ substrate protein remaining % ≤ 80%) | A (0% ≤ substrate protein remaining % ≤ 80%) | A (0% ≤ substrate protein remaining % ≤ 80%) | A (0% ≤ substrate protein remaining % ≤ 80%) | B (80%< substrate protein remaining %≤ 100%) | A (0% ≤ substrate protein remaining % ≤ 80%) |
| O=C1CCN(N2Cc3cc(CN4CCC(c5ccccc5F)CC4)ccc3C2=O)C(=O)N1 [GT-06889, 1-(5-((4-(2-fluorophenyl)piperidin-1-yl)methyl)-1-oxoisoindolin-2-yl)dihydropyrimidine-2,4(1H,3H)-dione] | A ("A" is defined as 0% ≤ substrate protein remaining % ≤ 80%) | B ("B" is defined as 80%< substrate protein remaining %≤ 100%) | B ("B" is defined as 80%< substrate protein remaining %≤ 100%) | A ("A" is defined as 0% ≤ substrate protein remaining % ≤ 80%) | B ("B" is defined as 80%< substrate protein remaining %≤ 100%) | A ("A" is defined as 0% ≤ substrate protein remaining % ≤ 80%) | – | – | – | – | – | – |
| Cc1ccc(C2=CCN(Cc3ccc4c(c3)C(=O)N(N3CCC(=O)NC3=O)C4=O)CC2)s1 [GT-05310, 2-(2,4-dioxotetrahydropyrimidin-1(2H)-yl)-5-((4-(5-methylthiophen-2-yl)-3,6-dihydropyridin-1(2H)-yl)methyl)isoindoline-1,3-dione] | B ("B" is defined as 80%< substrate protein remaining %≤ 100%) | B ("B" is defined as 80%< substrate protein remaining %≤ 100%) | B ("B" is defined as 80%< substrate protein remaining %≤ 100%) | B ("B" is defined as 80%< substrate protein remaining %≤ 100%) | B ("B" is defined as 80%< substrate protein remaining %≤ 100%) | A ("A" is defined as 0% ≤ substrate protein remaining % ≤ 80%) | – | – | – | – | – | – |
| CC1(C)CCC(CN2CCN(Cc3ccc4c(c3)C(=O)N(N3CCC(=O)NC3=O)C4=O)C(C(F)(F)F)C2)=C(c2ccc(Cl)cc2)C1 (stereo not drawn) [GT-07301, 5-((4-((4'-chloro-5,5-dimethyl-3,4,5,6-tetrahydro-[1,1'-biphenyl]-2-yl)methyl)-2-(trifluoromethyl)piperazin-1-yl)methyl)-2-(2,4-dioxotetrahydropyrimidin-1(2H)-yl)isoindoline-1,3-dione] | – | – | – | – | – | – | B (80%< substrate protein remaining %≤ 100%) | B (80%< substrate protein remaining %≤ 100%) | B (80%< substrate protein remaining %≤ 100%) | B (80%< substrate protein remaining %≤ 100%) | B (80%< substrate protein remaining %≤ 100%) | A (0% ≤ substrate protein remaining % ≤ 80%) |
| O=C1CCN(N2Cc3cc(CN4CCN(c5ccc(Cl)nc5)CC4)ccc3C2=O)C(=O)N1 [GT-05435, 1-(5-((4-(6-chloropyridin-3-yl)piperazin-1-yl)methyl)-1-oxoisoindolin-2-yl)dihydropyrimidine-2,4(1H,3H)-dione] | A ("A" is defined as 0% ≤ substrate protein remaining % ≤ 80%) | B ("B" is defined as 80%< substrate protein remaining %≤ 100%) | B ("B" is defined as 80%< substrate protein remaining %≤ 100%) | B ("B" is defined as 80%< substrate protein remaining %≤ 100%) | B ("B" is defined as 80%< substrate protein remaining %≤ 100%) | A ("A" is defined as 0% ≤ substrate protein remaining % ≤ 80%) | – | – | – | – | – | – |
